# Laboratory results published in patent US12268682B2, “Anticancer drug FL118 formulation for treatment of human cancer” (CANGET BIOTEKPHARMA, LLC, priority 2019, dated 2025).
# Experiments:
# [1] = system: UM9 MM tumors; test: In vivo efficacy in humanized xenograft RAG2-/-γc-/- model; parameters: species or system mice
# Procedure: In vivo efficacy of FL118: The in vivo efficacy of FL118 was studied in a xenograft RAG2^−/−γc^−/− marine model in which human MM cells are grown in a humanized BM like microenvironment generated by subcutaneous inoculation of MSC coated Hybrid scaffolds (4 scaffolds per mice) as described elsewhere (Groen R W, et al. Blood 2012,120:e9-e16). 24 hours before tumor inoculation (UM9; 5×10^5 cells/scaffold) mice were pre-conditioned with 18 mg/kg Busilvex. One week after inoculation, when there was visible tumor growth in all scaffolds by BLI, mice were randomly divided in four groups which were treated as follows: (1) vehicle control (n=3); (2) 0.05 mg/kg FL118 (n=4); (3) 0.1 mg/kg FL118 (n=4); (4) 0.2 mg/kg FL118 (n=4). FL118 or vehicle was administrated i.v. daily for five times. Tumor growth was monitored by weekly BLI measurements as previously described (Groen R W, et al. Blood 2012,120:e9-e16). All animal experiments were conducted for animal experimentation and were in compliance with the Dutch Animal Experimentation Act.
# [2] = system: UM9 cell line; test: BLI-based cytotoxicity assay with CAR T-cells or CTL 3AB11 on UM9; assay type: cell-based, human
# Source text: CD138-, BCMA- and CD38-specific CAR T-cells: All CAR T-cells with different specificities were generated with co-stimulatory domains 4-1BB, CD28, or CD28 supplemented with a separate 4-1BB ligand (28zBBL), with the technology as described previously (Kim J H, et al. PLoS One. 2011, 6:e18556; Drent E, et al. Clin Cancer Res. 2019, 25:4014-4025). CD138 CAR T-cells (nBT) were produced using single chain variable fragment (scFv) sequences of the published nBT062 monoclonal antibody (Ikeda H, et al. Clin Cancer Res. 2009, 15:4028-4037). BCMA CAR T-cells were produced using published scFv sequences derived from C11D5.3 monoclonal antibody (US2012/0082661 A1 (Shancer Z, et al. Antib Ther. 2018, 1:19-25) or from BCMA02 CAR (product name bb2121, WO 2016/094304 A2) (Raje N, et al. N Engl J Med. 2019, 380:1726-1737; Friedman K M, et al. Hum Gene Ther. 2018, 29:585-601). The generation and functional analysis of CD38 CAR T-cells with low (B1) or high (028) CD38-affinities has been described previously (Drent E, et al. Clin Cancer Res. 2019, 25:4014-4025; Drent E, et al. Mol Ther. 2017, 25:1946-1958). More detailed information on all CAR construct are listed in Table 1. CAR T-cells were tested 10-14 days after CAR transduction or frozen until testing. After thawing, CAR T-cells were cultured for 16 hours in 60 U/mL recombinant human IL-2 (R&D Systems)-containing culture medium (RPMI 1640 supplemented with heat-inactivated FBS (Sigma) and antibiotics), before using in experiments. Flow cytometry analysis, to determine the transduction efficiency and phenotypic profile of each CAR T-cell, was performed as previously described (Drent E, et al. Clin Cancer Res. 2019, 25:4014 4025; Drent E, et al. Mol Ther. 2017, 25:1946-1958) and illustrated in FIG. 10.
# 3AB11 was expanded using a feeder cell-cytokine mixture and cryopreserved until further use as described previously (Spaapen R, et al. Clin Cancer Res. 2007, 13:4009-4015).
# [3] = system: primary MM cells; test: Flow cytometry-based ex vivo assay using BMMNCs from MM patients; assay type: cell-based, human
# Procedure: Flow cytometry-based […] assays using BMMNCs: Cryopreserved BMMNCs derived from MM patients were incubated on a monolayer of 2×10^4 BMMSCs for 16 till 24 hours and subsequently treated with FL118 ([…]) and/or, melphalan (5-10 μM/L), bortezomib (2-3 nmol/L) for 48 hours. Concerning immunotherapy, treatment included FL118 (10 or 100 nM) and/or daratumumab, or CAR T-cells for 24 hours. BMMNC samples contained sufficient numbers of functional effector cells to induce antibody-mediated plasma cell lysis. At the end of treatment, after addition of flow-count fluorospheres (Beckman Coulter), adherent cells were detached with Accutase, blocked with human immunoglobulin (100 μg/mL, Sanquin), and stained for CD38, CD138, CD45 (Beckman Coulter) and live/dead cell marker (LIVE/DEAD Fixable Near-111; Life Technologies) to determine absolute numbers of viable MM cells using flow cytometry. The percentage lysis was then calculated using the following formula: % lysis cells=1−absolute number of viable CD138^+ CD38^+ CD45^dim MM cells in treated wells/mean absolute number of viable CD138^+ CD38^+ CD45^dim MM cells in untreated wells×100%.
# [4] = X-ray powder diffractometer (XRPD) crystal versus amorphous status; assay type: physicochemical
# Procedure: Crystal versus amorphous status analyses of FL118 versus the formulated FL118 product using X-ray powder diffractometer: The crystal or amorphous status of each formulated FL118-a type of CD complex powder is determined using X-ray powder diffractometer (XRPD). Specifically, about 5 mg samples of each formulated FL118-a type of CD complex powder are spread onto the center of Si-substrate (samples area will be 1 cm in diameter) for XRPD testing. Laboratory XRPD patterns for samples will be collected at 25° C. The diffraction data will be collected over the angular range of 2θ=3°-40° with a step size of 2θ=0.02° and accounting time of 0.12 s/step.
# [5] = system: MM1.s cells
# [6] = system: PDX tumors; conditions: in vivo; cited from earlier work
# [7] = system: control genes (p21cip1/waf1, dihydrofolate reductase, human thrombin receptor, thymidine kinase); conditions: cited from earlier work
# [8] = Storage and heat stability of FL118; assay type: physicochemical
# [9] = system: cancer stem cells (CSCs); conditions: cited from earlier work
# [10] = 0.2 mg/kg i.v. daily for five times
# [11] = primary BMMNC samples, 48 hours
compound,measurement,setting,value
CC[C@@]1(O)C(=O)OCc2c1cc1n(c2=O)Cc2cc3cc4c(cc3nc2-1)OCO4 [FL118],delay of tumor outgrowth,[1]; [10],up to 5 weeks
same,effect on initial tumor volume,[1]; [10],reduce the initial tumor volume
same,in vivo anti-MM activity,"[1]; 0.05, 0.1, 0.2 mg/kg i.v. daily for five times",dose-dependent
same,BMMSC protective effect against CTL 3AB11 lysis,[2]; 24 hours,completely abrogated
same,combination effect with CTL 3AB11,[2]; Chou-Talalay,synergistic fashion
same,"combination index (CI) values, FL118 and CAR T-cells","[2]; Chou-Talalay, especially in the presence of BMMSCs",below 1
same,BMMSC-mediated protection against CAR T-cells,"[2]; combined with CAR T-cells, even at doses as low as 3 nM",effectively modulated
same,lysis of MM-cells by FL118 alone,"[2]; regardless of the presence of BMMSCs, 24 hours",dose-dependent lysis
same,"combination of FL118 with CAR T-cells, observed versus expected lysis","[3]; 10 nM FL118, BLISS model",synergistic fashion
same,patient MM cell lysis by CAR T-cells in the presence of BMMSCs,"[3]; 10 nM FL118, E:T ratio 1:1, 24 hours",significantly enhanced
same,anti-MM activity of FL118 alone,"[3]; 10 nM, 24 hours, patient-derived MM cells",no/minimal anti-MM activity
same,BMMSC-mediated protection against daratumumab-induced MM cell lysis,"[3]; 100 nM FL118, 10 μg/mL daratumumab, 24 hours",abrogated
same,efficacy in RR patient samples compared to ND patient samples,"[3]; 100 nmol/L, 24 hours, 12 RR and 15 ND",significantly more effective
same,FL118-induced MM cell lysis,"[3]; 100 nmol/L, 24 hours, in 15 of 27 patient samples",≥ 20%
same,interaction between FL118 and daratumumab in the presence of BMMSCs,[3]; observed versus expected lysis,synergistic
same,combination effect with bortezomib (Bliss model),[3]; [11],additive effects
same,combination effect with melphalan (Bliss model),[3]; [11],synergistic effects
same,crystal versus amorphous status,[4],crystal
same,"combination with anti-DR5 antibody Drozitumab, cell lysis","[5]; 24 hours, PBMC effectors",great synergistic activity
same,"microenvironment-induced immune resistance, combination with Drozitumab",[5]; presence of BMMSCs,reversed
same,"effect on PDX tumors resistant/non-sensitive to FL118 and gemcitabine, combination with gemcitabine",[6],eliminated the PDX tumors
same,"effect on PDX tumors, FL118 alone",[6],effectively eliminated PDX tumors
same,inhibitory effects on control genes,[7],no inhibitory effects
same,stability at high temperature,"[8]; 60-80° C., spray-dry process, at least a period of time",without any issues
same,storage stability,"[8]; before and/or after formulation, room temperature or 4° C.",highly stable
same,"expression of CSC markers (ABCG2, ALDH1A1, Oct4)",[9],downregulates
same,invasive ability of CSCs,[9],effectively decreases
